According to patent US11447504B2, “Macrocyclic chlorine substituted indole derivatives” (Bayer Aktiengesellschaft, priority 2017, dated 2022):
Structures can show the parent of a compound that is named as a salt. Where two headings read alike, the source gives them in different places.

Columns and labels:
[1] = from CCOC(=O)c1[nH]c2c(-c3c(N(C)CCCCCO)nn(C)c3C)c(Cl)ccc2c1CCCOc1cccc2cc(F)ccc12, amine bond, di-tert-butyl azodicarboxylate/PPh3, THF, 15.7 mM, 64.0 h
SUDHL5 [2] = assay: Antiproliferation assay 7, SUDHL5; format: cell-based; conditions: SUDHL5 cells, CellTiter-Glo, read-out: Antiproli SUDHL5 IC50 (median)
In short: (§1)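 Cells were treated with compound for 72 hours at 37° C in a humidified incubator, and viability was then read by CellTiter-Glo luminescence. A parallel reference plate was read at time zero (day 0) in the same way for baseline determination.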

HMC-1-8 = assay: Antiproliferation assay 7, HMC-1-8; format: cell-based; conditions: HMC-1-8 cells, CellTiter-Glo, read-out: Antiproli HMC-1-8 IC50 median
In short: as §1

NCI-H23 = assay: Antiproliferation assay 7, NCI-H23; format: cell-based; conditions: NCI-H23 cells, 72 hours, CellTiter-Glo, read-out: Antiproli NCI-H23 IC50 median
Experimental: (§2) Assessment of the Anti-Proliferative Effect of Compounds in Different Cell Lines
(§3) The impact of compounds on the proliferation of different cell lines was assessed using the CellTiter-Glo® Luminescent Cell Viability reagent from Promega (G7573).
(§4) In parallel, cells were plated in a reference (day 0) plate for time zero determination.
(§5) Rim wells were excluded. The cells were incubated for 72 hours in a humidified incubator at 37° C. The day 0 plate was measured by adding 30 μL/well of CTG solution (CellTiter-Glo® Luminescent Cell Viability reagent, Promega G7573) to time zero wells in the reference plate followed by a 10 minutes incubation and luminescence reading at 0.1 ms. using the PHERAstar FS microplate reader (BMG Labtech).
(§6) After 72 hours incubation, the treated plates were measured in the same way as the day 0 plate mentioned above.

SK-BR-3 = assay: Antiproliferation assay 7, SK-BR-3; format: cell-based; conditions: SK-BR-3 cells, 72 hours, CellTiter-Glo, read-out: Antiproli SK-BR-3 IC50 median
Experimental: as §2, §3, §4, §5, §6

A2058 = assay: Antiproliferation assay 7, A2058; format: cell-based; conditions: A2058 cells, 72 hours, CellTiter-Glo, read-out: Antiproli A2058 IC50 median
Experimental: as §2, §3, §4, §5, §6

SUDHL10 [3] = assay: Induction of caspase-3/7 activity (Assay 4), SUDHL10; format: cell-based; conditions: SUDHL10 cells
In short: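 SUDHL10 DLBCL cells treated with compounds for 3 hours at 37 °C in a humidified incubator. Caspase-3/7 activity read with Caspase-Glo 3/7 luminescent reagent. Medium-only background subtracted from all values.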

SUDHL5 [4] = assay: Induction of caspase-3/7 activity (Assay 4), SUDHL5; format: cell-based; conditions: SUDHL5 cells
In short: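 DLBCL cells treated with compounds for 3 hours at 37° C. Caspase-3/7 activity measured by Caspase-Glo 3/7 luminescence, with medium-only background subtracted.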

SUDHL10 [5] = assay: Antiproliferation assay 7, SUDHL10; format: cell-based; conditions: SUDHL10 cells, CellTiter-Glo, read-out: Antiproli SUDHL10 IC50 (median)
In short: as §1

MV-4-11 = assay: Antiproliferation assay 7, MV-4-11; format: cell-based; conditions: MV-4-11 cells, CellTiter-Glo, read-out: Antiproli MV-4-11 IC50 median
In short: as §1

SUDHL10 [6] = assay: Induction of cytotoxicity (Assay 6), SUDHL10
AMO-1 = assay: Antiproliferation assay 7, AMO-1; format: cell-based; conditions: AMO-1 cells, CellTiter-Glo, read-out: Antiproli AMO-1 IC50 median
In short: as §1

SUDHL5 [7] = tested on: SUDHL5
SUDHL10 [8] = tested on: SUDHL10
SNU-389 = assay: Antiproliferation assay 7, SNU-389; format: cell-based; conditions: SNU-389 cells, 72 hours, CellTiter-Glo; read-out: Antiproli SNU-389 IC50 median
Experimental: as §2, §3, §4, §5, §6

KYSE-180 = assay: Antiproliferation assay 7, KYSE-180; format: cell-based; conditions: Homo sapiens; KYSE-180 cells, 72 hours, CellTiter-Glo; read-out: Antiproli KYSE-180 IC50 median
Experimental: as §2, §3, §4, §5, §6

SUDHL5 [9] = assay: Induction of cytotoxicity (Assay 6), SUDHL5
T47D = assay: Antiproliferation assay 7, T47D; format: cell-based; conditions: T47D cells, 72 hours, CellTiter-Glo; read-out: Antiproli T47D IC50 median
Experimental: as §2, §3, §4, §5, §6

[10] = Homo sapiens, SU-DHL10, 3 h, Caspase-Glo 3/7, read-out: Caspase SUDHL10 EC50 (median)
[11] = Homo sapiens, SU-DHL-5, 3 h, Caspase-Glo 3/7, read-out: Caspase SUDHL5 EC50 (median)
[12] = Homo sapiens, SU-DHL10, 5 h, read-out: Cytotox SUDHL10 IC50 (median), SUDHL10 cells, 5 hours, CellTiter-Glo
[13] = 3 hours, Caspase-Glo 3/7, read-out: Caspase SUDHL10 EC50 (median)
[14] = 3 hours, Caspase-Glo 3/7, read-out: Caspase SUDHL5 EC50 (median)
[15] = read-out: Cytotox SUDHL10 IC50 (median), SUDHL10 cells, 5 hours, CellTiter-Glo
[16] = read-out: Cytotox SUDHL5 IC50 (median), SUDHL5 cells, 5 hours, CellTiter-Glo

## CCOC(=O)c1c(CCCOc2cccc3cc(F)ccc23)c2ccc(Cl)c3c2n1CCCCCN(C)c1nn(C)c(C)c1-3
[1]
  ring closure, yield of all isomers: 44.8%

## Cc1nn(C)c2c1-c1c(Cl)ccc3c(CCCOc4cccc5ccccc45)c(C(=O)O)n(c13)CCCCOC2 (racemic) [Example 2, rac-4-chloro-1,3-dimethyl-7-[3-(naphthalen-1-yloxy)propyl]-1,10,11,12,13,15-hexahydropyrazolo[4′,3′:9,10][1,6]oxazacycloundecino[8,7,6-hi]indole-8-carboxylic Acid]
SUDHL5 [2]; Homo sapiens, SU-DHL-5, 72 h
  IC50: 2.8 µM
HMC-1-8; 72 h
  IC50: 15.3 µM
NCI-H23; Homo sapiens
  IC50: 14.6 µM
SK-BR-3; Homo sapiens
  IC50: 8.27 µM
A2058; Homo sapiens
  IC50: > 30 µM
SUDHL10 [3]; [10]
  EC50: 3.8 µM
SUDHL5 [4]; [11]
  EC50: 0.95 µM
SUDHL10 [5]; Homo sapiens, SU-DHL10, 72 h
  IC50: 2.4 µM
MV-4-11; Homo sapiens, MV4-11, 72 h
  IC50: 1.61 µM
SUDHL10 [6]; [12]
  IC50: 3 µM
AMO-1; Homo sapiens, AMO1, 72 h
  IC50: 4.86 µM

## Cc1c2c(nn1C)COCCCCn1c(C(=O)O)c(CCCOc3cccc4ccccc34)c3ccc(Cl)c-2c31 (racemic) [Example 25, (rac)-4-chloro-2,3-dimethyl-7-[3-(naphthalen-1-yloxy)propyl]-2,10,11,12,13,15-hexahydropyrazolo[4′,3′:9,10][1,6]oxazacycloundecino[8,7,6-hi]indole-8-carboxylic Acid]
SUDHL5 [2]; 72 hours
  IC50: 0.56 µM
HMC-1-8; 72 hours
  IC50: 6.48 µM
NCI-H23
  IC50: 6.01 µM
SUDHL5 [7]
  IC50: 0.53 µM
SK-BR-3
  IC50: 12.9 µM
A2058
  IC50: 21.9 µM
SUDHL10 [3]; [13]
  EC50: 1.2 µM
SUDHL5 [4]; [14]
  EC50: 0.39 µM
SUDHL10 [8]
  IC50: 0.93 µM
MV-4-11; 72 hours
  IC50: 2.78 µM
AMO-1; 72 hours
  IC50: 1.31 µM

## Cc1nn(C)c2c1-c1c(Cl)ccc3c(CCCOc4cccc5ccccc45)c(C(=O)O)n(c13)CCCCOC2 (single isomer, unassigned; enantiomer 1) [Example 3, 4-chloro-1,3-dimethyl-7-[3-(naphthalen-1-yloxy)propyl]-1,10,11,12,13,15-hexahydropyrazolo[4′,3′:9,10][1,6]oxazacycloundecino[8,7,6-hi]indole-8-carboxylic Acid (Enantiomer 1)]
HMC-1-8; 72 h
  IC50: 8.28 µM
NCI-H23; Homo sapiens
  IC50: 6.12 µM
SK-BR-3; Homo sapiens
  IC50: 7.37 µM
A2058; Homo sapiens
  IC50: > 30 µM
SUDHL10 [5]; 72 hours
  IC50: 1.7 µM
MV-4-11; Homo sapiens, MV4-11, 72 h
  IC50: 0.766 µM
SNU-389
  IC50: 20.6 µM
AMO-1; Homo sapiens, AMO1, 72 h
  IC50: 2.51 µM

## Cc1c2c(nn1C)CN(C)CCCCn1c(C(=O)O)c(CCCOc3cccc4ccccc34)c3ccc(Cl)c-2c31 (single isomer, unassigned; enantiomer 1) [Example 12, (+)-4-chloro-2,3,14-trimethyl-7-[3-(naphthalen-1-yloxy)propyl]-10,11,12,13,14,15-hexahydro-2H-pyrazolo[3′,4′:8,9][1,6]diazacycloundecino[10,11,1-hi]indole-8-carboxylic acid-N-ethylethanamine Salt (Enantiomer 1)]
SUDHL5 [2]; Homo sapiens, SU-DHL-5, 72 h
  IC50: 0.17 µM
HMC-1-8; 72 h
  IC50: 1.58 µM
KYSE-180
  IC50: 3.79 µM
SK-BR-3; Homo sapiens
  IC50: 0.667 µM
A2058; Homo sapiens
  IC50: 4.83 µM
SUDHL10 [3]; [10]
  EC50: 0.097 µM
SUDHL5 [4]; [11]
  EC50: 0.064 µM
SUDHL10 [5]; Homo sapiens, SU-DHL10, 72 h
  IC50: 0.14 µM
MV-4-11; Homo sapiens, MV4-11, 72 h
  IC50: 0.441 µM
SUDHL10 [6]; [12]
  IC50: 0.14 µM
SUDHL5 [9]; Homo sapiens, SU-DHL-5, 5 h, read-out: Cytotox SUDHL5 IC50 (median), SUDHL5 cells, 5 hours, CellTiter-Glo
  IC50: 0.083 µM
AMO-1; Homo sapiens, AMO1, 72 h
  IC50: 0.335 µM

## Cc1c2c(nn1C)COCCCCn1c(C(=O)O)c(CCCOc3cccc4cc(F)ccc34)c3ccc(Cl)c-2c31 (single isomer, unassigned; enantiomer 1) [Example 15, (+)-4-chloro-7-{3-[(6-fluoronaphthalen-1-yl)oxy]propyl}-2,3-dimethyl-2,10,11,12,13,15-hexahydropyrazolo[4′,3′:9,10][1,6]oxazacycloundecino[8,7,6-hi]indole-8-carboxylic acid-N-ethylethanamine Salt (Enantiomer 1)]
SUDHL5 [2]; 72 hours
  IC50: 0.19 µM
HMC-1-8; 72 hours
  IC50: 1.36 µM
A2058
  IC50: 5.86 µM
SUDHL10 [3]; [13]
  EC50: 0.15 µM
SUDHL5 [4]; [14]
  EC50: 0.15 µM
SUDHL10 [5]; 72 hours
  IC50: 0.2 µM
MV-4-11; 72 hours
  IC50: 0.461 µM
SUDHL10 [6]; [15]
  IC50: 0.23 µM
SUDHL5 [9]; [16]
  IC50: 0.14 µM
T47D
  IC50: 11.9 µM
AMO-1; 72 hours
  IC50: 0.53 µM

## Cc1c2c(nn1C)COCCCCn1c(C(=O)O)c(CCCOc3cccc4ccccc34)c3ccc(Cl)c-2c31 (single isomer, unassigned; enantiomer 1) [Example 26, 4-chloro-2,3-dimethyl-7-[3-(naphthalen-1-yloxy)propyl]-2,10,11,12,13,15-hexahydropyrazolo-[4′,3′:9,10][1,6]oxazacycloundecino[8,7,6-hi]indole-8-carboxylic acid-N-ethylethanamine Salt (Enantiomer 1)]
SUDHL5 [2]; 72 hours
  IC50: 0.58 µM
HMC-1-8; 72 hours
  IC50: 2.89 µM
NCI-H23
  IC50: 2.32 µM
SK-BR-3
  IC50: 3.3 µM
A2058
  IC50: 14.9 µM
SUDHL10 [3]; [13]
  EC50: 0.41 µM
SUDHL5 [4]; [14]
  EC50: 0.35 µM
MV-4-11; 72 hours
  IC50: 1.81 µM
SUDHL10 [6]; [15]
  IC50: 0.5 µM
SUDHL5 [9]; [16]
  IC50: 0.46 µM
AMO-1; 72 hours
  IC50: 0.996 µM
